Assay results: paper PMC7708446, “^18F-meta-fluorobenzylguanidine (^18F-mFBG) to monitor changes in norepinephrine transporter expression in response to therapeutic intervention in neuroblastoma models” (Scientific Reports, 2020)

Legend:
[1] = Biodistribution and PET statements pooled over Kelly and SK-N-BE(2)C xenograft-bearing mice; type: in vivo; details: 1 h p.i.
Experimental: When the tumours reached approximately 100–200 mm^3, mice were anaesthetised with an isoflurane/O2 mixture (1.5–2.0% v/v) and intravenously injected with either ^18F-mFBG (~ 7.5 MBq) or ^123I-mIBG (~ 20 MBq). Mice were then imaged using an Albira PET/SPECT/CT scanner (Bruker, Coventry, UK). […] Acquisition, reconstruction and image analysis were performed as described previously. Following the final scan, the mice were sacrificed and the major organs were excised, weighed and their associated radioactivity was measured using a γ-counter. Biodistribution and image quantification were expressed as a percentage of injected dose per gram of tissue (%ID/g), whereby 1 cm^3 on PET acquisitions were assumed to equal 1 g (n ≥ 3 mice ± SD).

Kelly xenografts [2] = test: Ex vivo biodistribution (γ-counter), mice bearing Kelly xenografts; type: in vivo; details: for ^18F-mFBG biodistribution 4 h p.i., Blood / ^18F-mFBG biodistribution 4 h p.i., Bone / ^18F-mFBG biodistribution 4 h p.i., Brown adipose / ^18F-mFBG biodistribution 4 h p.i., Heart / ^18F-mFBG biodistribution 4 h p.i., Kidney / ^18F-mFBG biodistribution 4 h p.i., Liver / ^18F-mFBG biodistribution 4 h p.i., Lungs / ^18F-mFBG biodistribution 4 h p.i., Muscle / ^18F-mFBG biodistribution 4 h p.i., Pancreas / ^18F-mFBG biodistribution 4 h p.i., Small intestine / ^18F-mFBG biodistribution 4 h p.i., Spleen / ^18F-mFBG biodistribution 4 h p.i., Tumour / ^18F-mFBG biodistribution 4 h p.i., Tumour:blood / ^18F-mFBG biodistribution 4 h p.i., Tumour:muscle: Kelly, 3 days
Experimental: All studies were conducted in compliance with licenses issued under the UK Animals (Scientific Procedures) Act 1986 and approved by the Institute of Cancer Research Animal Welfare and Ethical Review Body (AWERB) according to the United Kingdom National Cancer Research Institute Guidelines for Animal Welfare in Cancer Research (project license PCC916B22, Animals in Science Regulation Unit, Home Office Science, London, UK)[65]. Female Nu(NCr)-Foxn1nu mice (5–7 weeks; 20–22 g) obtained from an in-house breeding colony were used in the studies. Animals were housed in a temperature-controlled facility with 12 h on–12 h off light cycle and provided water and laboratory rodent food ad libitum. Subcutaneous xenografts were generated by injection of either Kelly (5 × 10^6/0.1 mL PBS/Matrigel 30% v/v; BD Matrigel Matrix, BD Bioscience, San Jose, California, US) or SK-N-BE(2)C (1 × 10^6/0.1 mL PBS/Matrigel) into the lower flank. For the treatment studies, AZD2014 stock solution in DMSO was diluted in PEG400 to a final concentration of 2 mg/mL (10% DMSO maximum). When tumours reached ~ 100 mm^3 (calliper measurements using formula: Volume = (Width(2) × Length)/2), mice were treated daily, for a total of either 1, 3 or 7 days, by oral gavage with AZD2014 (20 or 25 mg/kg/day) or vehicle control. Mice were monitored daily for body weight or other adverse effects.
(§1) When the tumours reached approximately 100–200 mm^3, mice were anaesthetised with an isoflurane/O2 mixture (1.5–2.0% v/v) and intravenously injected with either ^18F-mFBG (~ 7.5 MBq) or ^123I-mIBG (~ 20 MBq). Mice were then imaged using an Albira PET/SPECT/CT scanner (Bruker, Coventry, UK). Whole body PET static images were acquired after 1 and 4 h post-injection (p.i.) for 10 min with an energy window of 358 to 664 keV followed by CT acquisition. Acquisition, reconstruction and image analysis were performed as described previously. Following the final scan, the mice were sacrificed and the major organs were excised, weighed and their associated radioactivity was measured using a γ-counter. Biodistribution and image quantification were expressed as a percentage of injected dose per gram of tissue (%ID/g), whereby 1 cm^3 on PET acquisitions were assumed to equal 1 g (n ≥ 3 mice ± SD).

Kelly xenografts [3] = test: PET quantification of tumour uptake, Kelly xenografts; type: in vivo, mice
Experimental: as §1

SK-N-BE(2)C xenografts = test: PET quantification of tumour uptake, SK-N-BE(2)C xenografts; type: in vivo, mice
Experimental: as §1

In the case of `N=C(N)NCc1cccc([18F])c1` [^18F-mFBG, ^18F-meta-fluorobenzylguanidine], the “radiotracer uptake, brown adipose tissue (BAT)” value [1] is reported as > 7.0 %ID/g, the “radiotracer uptake, heart” value [1] is reported as > 12.0 %ID/g and the “radiotracer uptake, small intestine” value [1] is reported as ~ 8.0 %ID/g. The tumour uptake (Kelly xenografts [2]; Kelly xenografts, 4 h p.i., n = 3) was 0.30 ± 0.14 %ID/g, the “^18F-mFBG biodistribution 4 h p.i., Blood” value (Kelly xenografts [2]; AZD2014 (25 mg/kg/day)) was 0.19 ± 0.03 %ID/g and the “^18F-mFBG biodistribution 4 h p.i., Bone” value (Kelly xenografts [2]; AZD2014 (25 mg/kg/day)) was 0.99 ± 0.07 %ID/g. For the same compound, the “^18F-mFBG biodistribution 4 h p.i., Brown adipose” value (Kelly xenografts [2]; AZD2014 (25 mg/kg/day)) was 7.20 ± 0.88 %ID/g, the “^18F-mFBG biodistribution 4 h p.i., Heart” value (Kelly xenografts [2]; AZD2014 (25 mg/kg/day)) was 4.22 ± 0.85 %ID/g and the “^18F-mFBG biodistribution 4 h p.i., Kidney” value (Kelly xenografts [2]; AZD2014 (25 mg/kg/day)) was 0.97 ± 0.17 %ID/g. The “^18F-mFBG biodistribution 4 h p.i., Liver” value (Kelly xenografts [2]; AZD2014 (25 mg/kg/day)) was 2.08 ± 0.45 %ID/g, the “^18F-mFBG biodistribution 4 h p.i., Lungs” value (Kelly xenografts [2]; AZD2014 (25 mg/kg/day)) was 1.31 ± 0.39 %ID/g and the “^18F-mFBG biodistribution 4 h p.i., Muscle” value (Kelly xenografts [2]; AZD2014 (25 mg/kg/day)) was 0.64 ± 0.17 %ID/g. The “^18F-mFBG biodistribution 4 h p.i., Pancreas” value (Kelly xenografts [2]; AZD2014 (25 mg/kg/day)) was 1.25 ± 0.21 %ID/g, the “^18F-mFBG biodistribution 4 h p.i., Small intestine” value (Kelly xenografts [2]; AZD2014 (25 mg/kg/day)) was 7.30 ± 1.11 %ID/g and the “^18F-mFBG biodistribution 4 h p.i., Spleen” value (Kelly xenografts [2]; AZD2014 (25 mg/kg/day)) was 4.58 ± 0.77 %ID/g. For the same compound, the “^18F-mFBG biodistribution 4 h p.i., Tumour” value (Kelly xenografts [2]; AZD2014 (25 mg/kg/day)) was 0.74 ± 0.25 %ID/g, the “^18F-mFBG biodistribution 4 h p.i., Tumour:blood” value (Kelly xenografts [2]; AZD2014 (25 mg/kg/day)) was 4.16 ± 1.89 and the “^18F-mFBG biodistribution 4 h p.i., Tumour:muscle” value (Kelly xenografts [2]; AZD2014 (25 mg/kg/day)) was 1.23 ± 0.61. The “^18F-mFBG biodistribution 4 h p.i., Blood” value (Kelly xenografts [2]; Vehicle) was 0.22 ± 0.05 %ID/g, the “^18F-mFBG biodistribution 4 h p.i., Bone” value (Kelly xenografts [2]; Vehicle) was 1.43 ± 0.83 %ID/g and the “^18F-mFBG biodistribution 4 h p.i., Brown adipose” value (Kelly xenografts [2]; Vehicle) was 5.84 ± 2.44 %ID/g. For the same compound, the “^18F-mFBG biodistribution 4 h p.i., Heart” value (Kelly xenografts [2]; Vehicle) was 6.34 ± 1.41 %ID/g, the “^18F-mFBG biodistribution 4 h p.i., Kidney” value (Kelly xenografts [2]; Vehicle) was 1.11 ± 0.47 %ID/g and the “^18F-mFBG biodistribution 4 h p.i., Liver” value (Kelly xenografts [2]; Vehicle) was 2.37 ± 0.71 %ID/g. For the same compound, the “^18F-mFBG biodistribution 4 h p.i., Lungs” value (Kelly xenografts [2]; Vehicle) was 1.52 ± 0.22 %ID/g, the “^18F-mFBG biodistribution 4 h p.i., Muscle” value (Kelly xenografts [2]; Vehicle) was 0.74 ± 0.23 %ID/g and the “^18F-mFBG biodistribution 4 h p.i., Pancreas” value (Kelly xenografts [2]; Vehicle) was 1.26 ± 0.28 %ID/g. For the same compound, the “^18F-mFBG biodistribution 4 h p.i., Small intestine” value (Kelly xenografts [2]; Vehicle) was 6.57 ± 1.12 %ID/g, the “^18F-mFBG biodistribution 4 h p.i., Spleen” value (Kelly xenografts [2]; Vehicle) was 3.77 ± 0.82 %ID/g and the “^18F-mFBG biodistribution 4 h p.i., Tumour” value (Kelly xenografts [2]; Vehicle) was 0.39 ± 0.13 %ID/g. The “^18F-mFBG biodistribution 4 h p.i., Tumour:blood” value (Kelly xenografts [2]; Vehicle) was 1.75 ± 0.29, the “^18F-mFBG biodistribution 4 h p.i., Tumour:muscle” value (Kelly xenografts [2]; Vehicle) was 0.53 ± 0.01 and the PET tumour uptake (Kelly xenografts [3]; 1 h p.i., n = 9) was 1.10 ± 0.34 %ID/g. For the same compound, the PET tumour uptake (Kelly xenografts [3]; 4 h p.i., n = 5) was 0.65 ± 0.29 %ID/g, the PET tumour uptake (SK-N-BE(2)C xenografts; 1 h p.i., n = 21) was 2.46 ± 0.71 %ID/g and the PET tumour uptake (SK-N-BE(2)C xenografts; 4 h p.i., n = 15) was 3.88 ± 1.15 %ID/g.
